Measured values: US20240158442A1, “MULTIFUNCTIONAL POLYPEPTIDE AND APPLICATION THEREOF IN FIELD OF MEDICINES” (Wuhan Innerse Pharmaceutical Inc., priority 2021, published 2024)
Square brackets hold non-standard residues; d marks the D form. Ends that are not written are not given here. βAla = NCCC(=O)O

Legend:
[1] = tested on: rat cerebral ischemic stroke (MCAO, reperfusion 120 min after ischemia); test: Dose-effect experiment, MCAO ischemia-reperfusion model, rat neurological function score (NSS); format: in vivo, Sprague-Dawley (SD) rats; conditions: 3 mg/kg i.v., D 2 = 1 day after surgery, model control 8.62 ± 0.84
Description: The establishment of rat model: the rats were placed in an anesthesia induction box filled with 3.0% isoflurane for anesthesia induction. Anesthesia-induced animals were transferred to the operating table, and anesthesia was maintained with 2.0%˜2.5% isoflurane at 200 mL/min using a small-animal gas anesthesia machine, and the eyelid reflex and pain response of the rats were observed. The surgery can be started only after the eyelid reflex response and the pain response on limbs and tail disappeared. […]
• Measurement time: 24 hours before and after modeling; • Animals measured: all the surviving experimental animals planned to be measured; • Measurement method: a motor function test, sensory test, balance test, and reflex and abnormal behavior test were performed on animals, according to the rat neurological function score scale (NSS) for details.
The main purpose of clinical treatment for cerebral infarction is to restore the patient's neurological function as much as possible and to improve the quality of life after stroke. In this experiment, the animals were evaluated with Bederson scoring 1 hour after ischemia to evaluate the ischemia in animals. One day after modeling, the neurobehavioral function of animals was evaluated with NSS scoring scale in order to evaluate the effect of test substance in improving the neurological function of animals.

[2] = tested on: rats with cerebral ischemia (middle cerebral artery occlusion, MCAO); test: MCAO rat model of cerebral ischemia, behavioral observation and scoring (Example 5); format: in vivo, SD rats; conditions: 3 mg/kg via tail vein; for behavioral score, rat No. 1: individual animal No. 1; for behavioral score, rat No. 2: individual animal No. 2; for behavioral score, rat No. 3: individual animal No. 3; for behavioral score, rat No. 4: individual animal No. 4; for behavioral score, rat No. 5: individual animal No. 5; for behavioral score, rat No. 6: individual animal No. 6; for behavioral score, mean value: scored 22-24 h after suturation, scale 0-5, 6 rats per group
Description: (§1) In order to determine the application of the synthetic peptides provided by the present invention in neurological diseases, the present invention uses SD rats as experimental objects, and performs middle cerebral artery occlusion method (MCAO) to prepare rat model of cerebral ischemia. These rats were injected drugs intravenously 1-2 hours after ischemia, and a behavioral observation and scoring was conducted for each animal after 22-24 hours. After the behavioral observation, the experimental rats were euthanized and their brains were removed, cut to sections and stained with TTC for quantitative analysis, and the cerebral infarct volume % was calculated.
(§2) The experimental SD rat was weighed and anesthetized with chloral hydrate. After anesthesia, the limbs of the rat were fixed, and the rat was placed in a supine position, connected to the small-animal monitor, and monitored for important physiological parameters such as body temperature, blood pressure and heart rate, etc. The rat's neck was shaved and disinfected with 75% alcohol cotton ball. A middle incision of about 2 cm length was then made on the neck of the experimental rat, and the submandibular gland of the rat was bluntly separated while avoiding damage to the gland. Then, the left common carotid artery (CCA) of the experimental rat was bluntly separated, and the internal carotid artery (ICA) and external carotid artery (ECA) were carefully separated upward along the CCA. Any damage to vagus nerves was avoided during the separation. The CCA and ICA were clamped respectively with two artery clamps, and the distal end of the ECA was cut off and a silicone suture emboli was inserted into the ECA “port” to the ICA artery clamp, then the artery clamp was quickly loosened and the tip of the suture emboli was put in through the artery clamp quickly before clamping the ICA again. This step was repeated and the suture emboli was put in further until the black mark of the suture emboli reached the bifurcation of the ECA and ICA, and the tip of the suture emboli blocked the middle cerebral artery and then the ECA “port” and the suture emboli was tied tightly using a thread in order to prevent the “escape” of suture emboli or bleeding after the rat waked up. The artery clamps on the CCA and ICA were then loosed and removed to restore the tissue to its original position, and an appropriate amount of penicillin was applied to prevent wound infection. A medical suture needle with thread was used to suture, and the wound was disinfected using povidone-iodine again after the suturation. The experimental rats were monitored with the small-animal monitor to evaluate if their physiological parameters were normal, and the rats were placed on a small-animal electric blanket to keep their body temperature until they waked up, and placed in animal cages.
(§3) The drug to be tested was prepared as 3 mg/mL solution. The drug was dosed via tail vein 1-2 h after the suturation.
(§4) During the drug administration, the rat was fastened with a fastening device, and the drug to be tested was injected into the tail vein of the rat at 3 mg/kg using 1 mL syringe, the drug was injected slowly to reduce the cardiopulmonary load of the experimental rat.
(§5) The animals were divided into different test groups, with 6 rats for each group. Model group: After the suturation, an equal amount of normal saline was given via tail vein; Drug groups S1 (NA1), S4 (β-Ala-His-Lys-Ala-Pro) and S5 (Pro-Ala-Lys-β-Ala-His): administered via tail vein after the suturation;
The behavioral observation and scoring were performed on each animal 22-24h after the suturation.

[3] = tested on: experimental cerebral ischemia-reperfusion in animals (cynomolgus monkeys); conditions: preclinical ischemic stroke model; cited from earlier work
[4] = Dose-effect experiment, body weight of MCAO model animals; conditions: 3 mg/kg i.v.; D 2 = 1 day after surgery
Description: Measurement time: the body weight was measured at least twice during the accommodation, and each batch of rats were weighed once on the day before the surgery and on the day of dissection to calculate the amount of drug administered and the anesthetic applied; the body weight was measured twice a week after the surgery.
The effect of test substance on the weight of model animals: cerebral ischemia-reperfusion is an acute injury model, wherein the weight of experimental animals will drop dramatically after MCAO modeling. Thus, the weight of experimental animals is one of the most basic sensitive parameters to comprehensively reflect the health status of animals.

[5] = tested on: rats with cerebral ischemia (middle cerebral artery occlusion, MCAO); test: MCAO rat model of cerebral ischemia, TTC staining, cerebral infarct volume (Example 5); format: in vivo, SD rats; conditions: for infarct volume (TTC quantification), mean value: 3 mg/kg via tail vein 1-2 h after suturation, TTC after 22-24 h, 6 rats per group; for infarct volume (TTC quantification), rat No. 1: individual animal No. 1; for infarct volume (TTC quantification), rat No. 2: individual animal No. 2; for infarct volume (TTC quantification), rat No. 3: individual animal No. 3; for infarct volume (TTC quantification), rat No. 4: individual animal No. 4; for infarct volume (TTC quantification), rat No. 5: individual animal No. 5; for infarct volume (TTC quantification), rat No. 6: individual animal No. 6
Description: as §1
• Small-animal monitor: VT200 from Rongxianda Technology Co., Ltd., Shenzhen, China. • SD rats: 180-200 g, from China National Institutes for Food and Drug Identification. • Suture emboli: Maiyue Bio (M8507). • TTC staining solution: Yuanye Bio (R24053).
as §2, §3, §4, §5
After the behavioral observation, experimental rats were euthanized and their brains were removed. […]

[6] = tested on: patients with acute ischemic stroke (AIS) undergoing endovascular thrombectomy; conditions: intravenous injection 2.6 mg/kg; cited from earlier work
[7] = tested on: rat cerebral ischemic stroke (MCAO, reperfusion 120 min after ischemia); test: Dose-effect experiment, suture-embolized MCAO ischemia-reperfusion model, TTC staining, cerebral infarction size (Example 6); format: in vivo, Sprague-Dawley (SD) rats; conditions: for Infarct size (infarct tissue weight as percentage of whole brain weight): model control 24.84 ± 3.39
Description: Preparation method: an amount of test substance was weighted and fully dissolved using water for injection to the required concentration, and was filtered with a 0.22 μm filter to sterilize.
Animal strain: Sprague-Dawley (SD) rats; grade: SPF grade. Body weight: 200.01-240.03 g when the accommodation started, 213.79-278.79 g when grouping. Age: about 5-7 weeks old during the accommodation, and 6-8 weeks old when grouping. Source: SPF (Beijing) Biotechnology Co., Ltd., Beijing, China.
A. Isolating and exposing blood vessels: the skin of the surgical area was shaved, and the rat was placed under a surgical microscope. The skin of the rat was cut along the midline with ophthalmic scissors, with a cut of about 2 cm length. Through the right neck of the rat, the muscle tissue of the right neck was bluntly isolated and opened with a microforcep to expose the right common carotid artery (CCA), and then isolated upward along the common carotid artery to further expose the external carotid artery (ECA) and internal carotid artery (ICA);
B. The ECA was ligated and the ICA was temporarily clamped; the proximal end and distal end of CCA were threaded separately, the distal end was tied tightly and the proximal end was tied with a loose knot, and a small incision was made between the two threads;
Inserting the suture emboli: A No. 4-0 suture emboli was inserted through the incision of CCA, pushed slowly and gently into the internal carotid artery, and stopped at the artery clamp of ICA, the pre-set thread was tied tightly (to avoid severe bleeding when pushing the suture emboli), then the artery clamp that blocked the blood flow of ICA was removed, and the suture emboli was immediately pushed into ICA until entering into the cranium. […]
D. Fixing the suture emboli and suturing the incision: if one felt slight resistance when the suture emboli was inserted about 18 mm depth from the bifurcation of the common carotid artery, it means that the tip of the suture emboli has entered into the cerebral anterior artery (ACA), and the side wall of the suture emboli has blocked the opening of the middle cerebral artery; at the moment, the insertion was terminated and the time was recorded. […]

[8] = 3 mg/kg i.v. once within 10 min after reperfusion, TTC 24 h after treatment
[9] = listed as β-Ala-His-Lys-Ala-Pro

Substance	behavioral score, rat No. 1 [2]	behavioral score, rat No. 2 [2]	behavioral score, rat No. 3 [2]	behavioral score, rat No. 4 [2]	behavioral score, rat No. 5 [2]	behavioral score, rat No. 6 [2]	behavioral score, mean value [2]	infarct volume (TTC quantification), mean value [5]	infarct volume (TTC quantification), rat No. 1 ([5]; 3 mg/kg via tail vein)	infarct volume (TTC quantification), rat No. 2 ([5]; 3 mg/kg via tail vein)	infarct volume (TTC quantification), rat No. 3 ([5]; 3 mg/kg via tail vein)	infarct volume (TTC quantification), rat No. 4 ([5]; 3 mg/kg via tail vein)	infarct volume (TTC quantification), rat No. 5 ([5]; 3 mg/kg via tail vein)	infarct volume (TTC quantification), rat No. 6 ([5]; 3 mg/kg via tail vein)	other results
YGRKKRRQRRRKLSSIESDV [Example S1, nerinetide]	2 points	2 points	2 points	2 points	1 points	3 points	2.0 points	0.157	0.187	0.218	0.153	0.145	0.107	0.134	NSS score D 2 ([1]; listed as Positive drug): 8.00 ± 0.76; NSS score D 2 ([1]; listed as positive control): 8.00±0.76; behavioral score, mean value ([2]; listed as NA1): 2.0±0.6 points; functional prognosis [3]: improve the functional prognosis; infarct size of experimental cerebral ischemia-reperfusion [3]: reduce the infarct size; Weight D 2 [4]: 203.7 ± 10.94 g; infarct volume (TTC quantification), mean value ([5]; listed as NA1): 0.157±0.040; patient's prognosis [6]: improved patient's prognosis; Infarct weight [7, 8]: 0.24 ± 0.02 g; Infarct size (infarct tissue weight as percentage of whole brain weight) [7, 8]: 16.74±3.14%; Infarct size (infarct tissue weight as percentage of whole brain weight) ([7]; 3 mg/kg i.v. once within 10 min after reperfusion, TTC 24 h after treatment, listed as Positive drug): 16.74 ± 3.14 %; Inhibition rate of cerebral infarction ([7]; 3 mg/kg i.v., calculated from infarct size versus model control group): 33%
β-Ala-His-Lys-Ala-Pro ([βAla]HKAP) [Example S4]	3 points	2 points	3 points	2 points	1 points	1 points	2.0 points	0.155	0.233	0.157	0.137	0.171	0.118	0.116	behavioral score, statistical comparison with S1 ([2]; compared with S1 (NA1) 3 mg/kg): not statistically different from S1; behavioral score, mean value [2, 9]: 2.0±0.9 points; infarct volume (TTC quantification), mean value [5, 9]: 0.155±0.044; infarct volume, statistical comparison with S1 ([5]; 3 mg/kg via tail vein, compared with S1 (NA1) 3 mg/kg): not statistically different from S1
